Measured values reported in US20080200404A1, “Novel Antimalarial 9A-Carbamoyl-Aminoalkyl and 9A-Thiocarbamoyl-Aminoalkyl Azalides” (priority 2005, published 2008).
Converted amounts (≈) assume the structure as drawn.

What was measured:
Assay type in all cases: cell-based
[1] = system: Plasmodium falciparum clone CDC/Sierra Leone I (D-6); test: In vitro antimalarial [3H]-hypoxanthine incorporation serial dilution assay, D6; conditions: Plasmodium falciparum, D6, 72 h, P. falciparum D6, 72 hours exposure; read-out: IC50 D6
Method in brief: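 IC50 came from logistic fitting of eleven two-fold compound dilutions, read as [3H]-hypoxanthine uptake into parasite DNA relative to untreated infected wells after 72 h. Parasites were grown in A+ human erythrocytes (6%) in RPMI-1640 with plasma or ALBUMAX at 37° C, 5% CO2, 5% O2.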

[2] = system: Plasmodium falciparum TM91C235; test: In vitro antimalarial [3H]-hypoxanthine incorporation assay, TM91C235; conditions: Plasmodium falciparum; P. falciparum TM91C235 (multiple drug resistant isolate), 72 hours exposure
Method in brief: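 Growth was read by [3H]-hypoxanthine incorporation after 72 h total incubation, as CPM normalized to the mean of untreated infected controls. Erythrocytic-stage TM91C235 (0.4% parasitemia, 1% hematocrit, ALBUMAX medium without folate or PABA, 5% O2/5% CO2, 37° C) was first exposed 48 h to compound at three levels, 25–25,000 ng/ml, in duplicate.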

[3] = system: Plasmodium falciparum clone CDC/Indochina III (W-2); test: In vitro antimalarial [3H]-hypoxanthine incorporation serial dilution assay, W2; conditions: Plasmodium falciparum; P. falciparum W2, 72 hours exposure
Text: The in vitro screens for intrinsic antimalarial activity were based on modifications of the procedures described by Desjardins R E, Canfield C J, Haynes J D, Chulay J D. (Quantitative assessment of antimalarial activity in vitro by a semiautomated microdilution technique. Antimicrob Agents Chemother. 1979 December; 16(6):710-8.), Chulay J D, Haynes J D, Diggs C L. (Plasmodium falciparum: Assessment of in vitro growth by [3H]hypoxanthine incorporation. Exp. Parasitol. 1983 55:138-146.), and Milhous W K, Weatherly N F, Bowdre J H, Desjardins R E. (In vitro activities of and mechanisms of resistance to antifol antimalarial drugs. Antimicrob Agents Chemother. 1985 April; 27(4):525-30.). The system was limited to the assessment of the intrinsic activity against the erythrocytic asexual life cycle (blood schizontocides). Two Plasmodium falciparum clones from CDC/Indochina III (W-2) and CDC/Sierra Leone I (D-6) (Oduola A M, Weatherly N F, Bowdre J H, Desjardins R E. Plasmodium falciparum: cloning by single-erythrocyte micromanipulation and heterogeneity in vitro. Exp Parasitol. 1988 66(1):86-95.) were used for all assays. TM91C235, a multiple drug resistant isolate from Thailand, was used for the prescreening assay. W-2 is resistant to chloroquine, quinine, and pyrimethamine and susceptible to mefloquine. D-6 tends to be more resistant to mefloquine and susceptible to chloroquine, quinine, and pyrimethamine. All documents cited in this paragraph are incorporated by reference in their entirety.
All parasites were maintained in continuous long term cultures in RPMI-1640 medium supplemented with 6% washed human A positive (A+)(erythrocytes, 25 mM Hepes, […], and 10% heat inactivated A+human plasma or ALBUMAX® (lipid-rich bovine serum albumin; Invitrogen, Carlsbad, Calif.). All cultures and assays were conducted at 37° C. under an atmosphere of 5% CO2 and 5% O2, with a balance of N2.
After the preincubation, [^3H]-hypoxanthine was added to each well of the MTP. (The assay relies on the incorporation of radiolabeled hypoxanthine by the parasites, which indicates reproduction, and inhibition of isotope incorporation was attributed to activity of known or candidate antimalarial drugs). After 72 hr of total incubation time, the MTP were frozen to lyse the erythrocytes and parasites. The parasite DNA was recovered by harvesting the lysate onto glass-fiber filter plates using a Packard FilterMate™ Cell Harvester. The radioactivity was counted on a Packard TopCount™ microplate scintillation counter. The results were recorded as counts per minutes (CPM) per well at each drug concentration divided by the arithmetic mean of the CPM from the three untreated infection parasite control wells.
The serial dilution assay was conducted using the same assay conditions and stock solution of the compound used for the preliminary screen, described above. Both the D-6 and the W-2 clones were used. The compounds were diluted two-fold over 11 different concentration ranges with a starting concentration that was based on the preliminary screen. For each drug, the concentration response profile was determined and 50% inhibitory concentrations (IC50) were determined by using a non-linear, logistic dose response analysis program. […] For each assay, the IC50 for each clone was determined against the known antimalarials chloroquine and mefloquine. These control values established the compound's relative parasite susceptibility profile compared to known antimalarials. […]
The in vitro potency of the compounds has been compared with that of azithromycin to better gauge compounds suitable for further testing. As described above, parasites were exposed for 72 hours. Data from the in vitro potency tests of azithromycin against the three parasite strains have been averaged, and these numbers have been used for identification of “active” macrolide compounds.

| SMILES | IC50 [1] | IC50 [2] | IC50 [3] |
| --- | --- | --- | --- |
| CC[C@H]1OC(=O)[C@H](C)[C@@H](O[C@H]2C[C@@](C)(OC)[C@@H](O)[C@H](C)O2)[C@H](C)[C@@H](O[C@@H]2O[C@H](C)C[C@H](N(C)C)[C@H]2O)[C@](C)(O)C[C@@H](C)CN(CCCNC(=O)Nc2ccccc2-c2ccccc2)[C@H](C)[C@@H](O)[C@]1(C)O.O=CO [Example 85] | 0.262 µg/mL | 0.142 µg/mL | 0.209 µg/mL |
| CC[C@H]1OC(=O)[C@H](C)[C@@H](O[C@H]2C[C@@](C)(OC)[C@@H](O)[C@H](C)O2)[C@H](C)[C@@H](O[C@@H]2O[C@H](C)C[C@H](N(C)C)[C@H]2O)[C@](C)(O)C[C@@H](C)CN(CCCNC(=O)Nc2c(C)noc2-c2ccccc2)[C@H](C)[C@@H](O)[C@]1(C)O.O=CO [Example 90] | 0.972 µg/mL | 0.511 µg/mL | 0.762 µg/mL |
| CC[C@H]1OC(=O)[C@H](C)[C@@H](O[C@H]2C[C@@](C)(OC)[C@@H](O)[C@H](C)O2)[C@H](C)[C@@H](O[C@@H]2O[C@H](C)C[C@H](N(C)C)[C@H]2O)[C@](C)(O)C[C@@H](C)CN(CCCNC(=O)NC2CCN(C(=O)OCc3ccccc3)CC2)[C@H](C)[C@@H](O)[C@]1(C)O.O=CO [Example 91] | 0.698 µg/mL | 0.259 µg/mL | 0.303 µg/mL |
| CC[C@H]1OC(=O)[C@H](C)[C@@H](O[C@H]2C[C@@](C)(OC)[C@@H](O)[C@H](C)O2)[C@H](C)[C@@H](O[C@@H]2O[C@H](C)C[C@H](N(C)C)[C@H]2O)[C@](C)(O)C[C@@H](C)CN(CCCNC(=S)Nc2ccc(C)cc2)[C@H](C)[C@@H](O)[C@]1(C)O [Example 97] | 0.311 µg/mL (≈ 0.33 µM) | 0.154 µg/mL (≈ 0.164 µM) | 0.0671 µg/mL (≈ 0.0713 µM) |
| CC[C@H]1OC(=O)[C@H](C)[C@@H](O[C@H]2C[C@@](C)(OC)[C@@H](O)[C@H](C)O2)[C@H](C)[C@@H](O[C@@H]2O[C@H](C)C[C@H](N(C)C)[C@H]2O)[C@](C)(O)C[C@@H](C)CN(CCCNC(=S)Nc2ccc(F)cc2)[C@H](C)[C@@H](O)[C@]1(C)O [Example 99] | 0.302 µg/mL (≈ 0.32 µM) | 0.131 µg/mL (≈ 0.139 µM) | 0.0688 µg/mL (≈ 0.0728 µM) |

The next lines start with the values.

| IC50 [1] | IC50 [2] | IC50 [3] | SMILES |
| --- | --- | --- | --- |
| 0.457 µg/mL (≈ 0.445 µM) | 0.142 µg/mL (≈ 0.138 µM) | 0.207 µg/mL (≈ 0.201 µM) | CC[C@H]1OC(=O)[C@H](C)[C@@H](O[C@H]2C[C@@](C)(OC)[C@@H](O)[C@H](C)O2)[C@H](C)[C@@H](O[C@@H]2O[C@H](C)C[C@H](N(C)C)[C@H]2O)[C@](C)(O)C[C@@H](C)CN(CCCNC(=O)Nc2ccc(OC)c(OC3CCCC3)c2)[C@H](C)[C@@H](O)[C@]1(C)O [Example 86] |
| 0.304 µg/mL (≈ 0.299 µM) | 0.148 µg/mL (≈ 0.146 µM) | 0.178 µg/mL (≈ 0.175 µM) | CC[C@H]1OC(=O)[C@H](C)[C@@H](O[C@@H]2C[C@@H](C)[C@H](O)[C@](C)(OC)C2)[C@H](O)[C@@H](O[C@@H]2O[C@H](C)C[C@H](N(C)C)[C@H]2O)[C@](C)(O)C[C@@H](C)CN(CCCNC(=O)Nc2ccc(OCc3ccccc3)cc2)[C@H](C)[C@@H](O)[C@]1(C)O [Example 87] |
| 0.371 µg/mL | 0.33 µg/mL | 0.319 µg/mL | CC[C@H]1OC(=O)[C@H](C)[C@@H](O[C@H]2C[C@@](C)(OC)[C@@H](O)[C@H](C)O2)[C@H](C)[C@@H](O[C@@H]2O[C@H](C)C[C@H](N(C)C)[C@H]2O)[C@](C)(O)C[C@@H](C)CN(CCCNC(=O)Nc2cc(C)oc2C(F)(F)F)[C@H](C)[C@@H](O)[C@]1(C)O.O=CO [Example 88] |
| 0.625 µg/mL | 0.364 µg/mL | 0.179 µg/mL | CCCCNC(=S)NCCCN1C[C@H](C)C[C@@](C)(O)[C@H](O[C@@H]2O[C@H](C)C[C@H](N(C)C)[C@H]2O)[C@@H](C)[C@H](O[C@H]2C[C@@](C)(OC)[C@@H](O)[C@H](C)O2)[C@@H](C)C(=O)O[C@H](CC)[C@@](C)(O)[C@H](O)[C@H]1C.O=CO [Example 96] |
| 0.126 µg/mL (≈ 0.132 µM) | 0.0745 µg/mL (≈ 0.0782 µM) | 0.0476 µg/mL (≈ 0.05 µM) | CC[C@H]1OC(=O)[C@H](C)[C@@H](O[C@H]2C[C@@](C)(OC)[C@@H](O)[C@H](C)O2)[C@H](C)[C@@H](O[C@@H]2O[C@H](C)C[C@H](N(C)C)[C@H]2O)[C@](C)(O)C[C@@H](C)CN(CCCNC(=S)Nc2ccc(C#N)cc2)[C@H](C)[C@@H](O)[C@]1(C)O [Example 98] |
